# Assay results as given in US20070207145A1, “MOUSE/HUMAN […] ANTI-PHE[…] AND USES THEREOF” (BOARD OF TRUSTEES OF THE UNIVERSITY OF ARKANSAS, priority 2003, published 2007).
# B1: ch-mAb6B5: mouse/human chimeric anti-PCP monoclonal antibody: mAb6B5 variable domains on human IgG2 heavy chain and kappa light chain constant domains (antibody)
# heavy: MECSCVMLFLLSGTAGVLSEVQLQQSGPELVKPGASVKMSCKASGYTGTDYYIHWMKQSHGKSLEWIGYIYPNNGGNGYNQKFKGKATLTVDKSSSTAYMELRTLTSEDSAVYYCGRSTWDDFDYWGQGTTLTVSSASTKGPSVFPLAPCSRSTSESTAALGCLVKDYFPEPVTVSWNSGALTSGVHTFPAVLQSSGLYSLSSVVTVPSSNFGTQTYTCNVDHKPSNTKVDKTVERKCCVECPPCPAPPVAGPSVFLFPPKPKDTLMISRTPEVTCVVVDVSHEDPEVQFNWYVDGVEVHNAKTKPREEQFNSTFRVVSVLTVVHQDWLNGKEYKCKVSNKGLPAPIEKTISKTKGQPREPQVYTLPPSREEMTKNQVSLTCLVKGFYPSDIAVEWESNGQPENNYKTTPPMLDSDGSFFLYSKLTVDKSRWQQGNVFSCSVMHEALHNHYTQKSLSLSPGK
# light: MKLPVRLLVLMFWIPASSSDVLMTQTPLSLPVSLGDQASISCRSSQTIVHSNGNTYLEWYLQKPGQSPKLLIYKVSNRFSGVPDRFSGSGSGTDFTLKISRVEAEDLGVYYCFQGTHAPYTFGGGTKLEIKTAAAPSVFIFPPSDEQLKSGTASVVCLLNNFYPREAKVQWKVDNALQSGNSQESVTEQDSKDSTYSLSSTLTLSKADYEKHKVYACEVTHQGLSSPVTKSFNRGEC
# modifications: Amino acid sequence of anti-PCP ch-mAb6B5 heavy chain.; Amino acid sequence of anti-PCP ch-mAb6B5 light chain.
# Columns and labels:
# [1] = in humans; cited from earlier work
# [2] = rats, s.c. infusion 18 mg/kg/day; cited from earlier work
# [3] = tested on: PCP's adverse health effects; assay: dose-dependent effects of mAb6B5 IgG on health and behavior of rats continuously infused with PCP; assay type: in vivo
# Experimental: This series of experiments assessed the dose-dependent effects mAb6B5 IgG on measures of health and behavior (Laurenzana et al., 2003). Rats were implanted with s.c. osmotic minipumps filled to deliver PCP at a rate of 18 mg/kg/day. Baseline PCP-induced locomotor activity was assessed (24 hr after start of PCP infusion), and then saline or various doses of mAb6B5 IgG were administered i.v. The doses of mAb6B5 ranged from 1 mol-eq of serum PCP concentration at steady state (1.53 g/kg of mAb6B5 IgG), down to 0.003 mol-eq (0.005 g/kg).
# On a daily basis, rats were assessed on the amount of food eaten, body weight, general health, and evidence of chromodacryorrhea (“bloody tears” or red lacrimal secretions), an indicator of PCP-induced stress. […] The dose-dependent effects of mAb6B5 IgG on body weight produced some of the most interesting and profound effects (FIG. 8). […] PCP-induced reductions in feeding and drinking behavior obviously contributed to the weight loss in these groups. But their eating behavior normalized by day 4, probably secondary to the development of tolerance to the drug. This allowed these rats to better maintain their health and well-being. […] The PCP-induced weight loss achieved maximum on about day 4 of the experiment. […] 25% of the rats died or had to be sacrificed for humane reasons. […]
# [4] = tested on: PCP receptor; conditions: drug discrimination and PCP receptor binding assays; cited from earlier work
# [5] = radioimmunoassay (RIA) with [3H]PCP; assay type: binding
# Experimental: A 100 μl aliquot of [^3H]PCP (30,000-40,000 dpm) in RIA buffer (50 mM Tris-HCl adjusted to pH 7.6, 0.15M NaCl, 0.1% BSA and 0.2% NaN3) was added to 50×14 mm sample tubes (Sarsedt, Princeton, N.J.). Then 100 γl of appropriate concentration of test ligand was added to duplicate tubes. […] A 100 μl aliquot of this dilution was then added to all tubes except the tubes for non-specific binding. To nonspecific binding tubes 100 μl of RIA buffer was added. After vortex mixing, the tubes were incubated at 4-8° C. overnight. Next, 1 ml of RIA buffer containing 5% goat anti-mouse IgG (Pel-Freez Biologicals, Rogers, Ark.) and 5% polyethylene glycol 8000 (J. T. Baker Chemical Co.) was added. The tubes were incubated for 15 min at 4-8° C. and centrifuged at the same temperature for 15 min at 2000×g to precipitate the antibody-bound reactivity. The supernatant fluid was aspirated and the pellet was resuspended in the same test tube with 2 ml of scintillation fluid (Liquiscint, National Diagnostics, Manville, N.J.). The tube was placed in a 7 ml scintillation vial and the concentration of [^3H]PCP was determined by liquid scintillation spectrometry.
# The IC50 for both methods very closely approximates the affinity of an antibody.
molecule,measurement,setting,value
"c1ccc(C2(N3CCCCC3)CCCCC2)cc1 [PCP, Phencyclidine]",volume of distribution (Vd),[1],6.2 L/kg
same,half-life (t1/2),[2],4 h
same,rats that died or had to be sacrificed,"[3]; PCP-saline and PCP-0.003 mol Eq groups, days 4 through 7, 18 mg/kg/day",25%
same,animals that died as a result of PCP administration,[3]; repeated PCP-saline control experiment,1 of 4
"c1csc(C2(N3CCCCC3)CCCCC2)c1 [TCP, 1-[1-(2-thienyl)cyclohexyl]piperidine]",potency relative to PCP (times more potent),[4],about 1.3 times
"CCNC1(c2ccccc2)CCCCC1 [PCE, N-ethyl-1-phenylcyclohexylamine]",potency relative to PCP (times more potent),[4],~6 times
B1,IC50,[5],1.6 nM
same,Kd,[5]; chimeric antibody,1.6 nM
